# Source: patent US8835464B2, “Triazole compounds that modulate HSP90 activity” (Synta Pharmaceuticals Corp., priority 2006, dated 2014)
# Counter-ions that a name gives are not always drawn.
# System: Her2
# Assay: Degradation of Her2 in BT-474 cells, Western blot (Method 1)
# Format: cell-based, human
# Conditions: 0.5 μM, overnight, positive control
# Description: Human high-Her2 breast carcinoma BT474 (HTB-20), SK-BR-3 (HTB-30) and MCF-7 breast carcinoma (HTB-22) from American Type Culture Collection, VA, USA were grown in Dulbecco's modified Eagle's medium with 4 mM L-glutamine and antibiotics ([…] penicillin and 100 ug/ml streptomycine; GibcoBRL). To obtain exponential cell growth, cells were trypsinized, counted and seeded at a cell density of 0.5×10^6 cells/ml regularly, every 3 days. All experiments were performed on day 1 after cell passage.
# BT-474 cells are treated with 0.5 μM, 2 μM, or 5 μM of 17AAG (a positive control) or 0.5 μM, 2 μM, or 5 μM of a compound of the invention overnight in DMEM medium. After treatment, each cytoplasmic sample is prepared from 1×10^6 cells by incubation of cell lysis buffer (#9803, cell Signaling Technology) on ice for 10 minutes. The resulting supernatant used as the cytosol fractions is dissolved with sample buffer for SDS-PAGE and run on a SDS-PAGE gel, blotted onto a nitrocellulose membrane by using semi-dry transfer. Non-specific binding to nitrocellulose is blocked with 5% skim milk in TBS with 0.5% Tween at room temperature for 1 hour, then probed with anti-Her2/ErB2 mAb (rabbit IgG, #2242, Cell Signaling) and anti-Tubulin (T9026, Sigma) as housekeeping control protein. […]
row,Structure (SMILES),degradation of Her2
1,"C=CCNC1=C2C[C@@H](C)C[C@H](OC)[C@H](O)[C@@H](C)/C=C(\C)[C@H](OC(N)=O)[C@@H](OC)/C=C\C=C(/C)C(=O)NC(=CC1=O)C2=O [Compound 17AAG, 17-allylamino-17-demethoxygeldanamycin]",partial degradation

# System: Hsp90
# Assay: IC50 of compounds of the invention, Example B Method 2 (Tables 6-9)
# Format: cell-based, human
# Conditions: Table 7; Her2 degradation / inhibition of Hsp90; Method 2: MV-4-11 cells, 72 hours, Cell Counting Kit-8; read-out: IC50
row,Structure (SMILES),IC50 [nM]
1,"CC(C)c1cc(-c2nnc(Nc3cccc(C(F)(F)F)c3)n2-c2ccc3c(ccn3C)c2)c(O)cc1O [Compound 7a, 4-isopropyl-6-(4-(1-methyl-1H-indol-5-yl)-5-(3-(trifluoromethyl)phenylamino)-4H-1,2,4-triazol-3-yl)benzene-1,3-diol]",> 5000
2,"COCC(=O)Nc1nnc(-c2cc(C(C)C)c(O)cc2O)n1-c1ccc2c(ccn2C)c1 [Compound 13a, N-(5-(2,4-dihydroxy-5-isopropylphenyl)-4-(1-methyl-1H-indol-5-yl)-4H-1,2,4-triazol-3-yl)-2-methoxyacetamide]",1800
3,"CC(C)c1cc(-c2nnc(NC(=O)COc3ccc(Cl)cc3)n2-c2ccc3c(ccn3C)c2)c(O)cc1O [Compound 19a, 2-(4-chlorophenoxy)-N-(5-(2,4-dihydroxy-5-isopropylphenyl)-4-(1-methyl-1H-indol-5-yl)-4H-1,2,4-triazol-3-yl)acetamide]",2740
4,"CCCC(=O)Nc1nnc(-c2cc(C(C)C)c(O)cc2O)n1-c1ccc2c(ccn2C)c1 [Compound 12a, N-(5-(2,4-dihydroxy-5-isopropylphenyl)-4-(1-methyl-1H-indol-5-yl)-4H-1,2,4-triazol-3-yl)butyramide]",1400
5,"CC(C)c1cc(-c2nnc(NC(=O)c3ccc(F)c(F)c3)n2-c2ccc3c(ccn3C)c2)c(O)cc1O [Compound 17a, N-(5-(2,4-dihydroxy-5-isopropylphenyl)-4-(1-methyl-1H-indol-5-yl)-4H-1,2,4-triazol-3-yl)-3,4-difluorobenzamide]",1680
6,"CNc1nnc(-c2cc(C(C)C)c(O)cc2O)n1-c1ccc2c(ccn2C)c1 [Compound 2a, 4-Isopropyl-6-[4-(1-methyl-1H-indol-5-yl)-5-methylamino-4H-[1,2,4]triazol-3-yl]-benzene-1,3-diol]",3500

# Same assay, conditions: Table 8; Her2 degradation / inhibition of Hsp90; Method 2: MV-4-11 cells, 72 hours, Cell Counting Kit-8; read-out: IC50
row,Structure (SMILES),IC50 [nM]
1,"CCc1cc(-c2nnc(S)n2-c2cccc3ccccc23)c(OC(=O)C(C)(C)C)cc1OC(=O)C(C)(C)C [Compound 3b, 4-ethyl-6-(5-mercapto-4-(naphthalen-1-yl)-4H-1,2,4-triazol-3-yl)-1,3-phenylene bis(2,2-dimethylpropanoate)]",> 2000
2,"CC(C)c1cc(-c2nnc(SSc3nnc(-c4cc(C(C)C)c(O)cc4O)n3-c3ccc(N(C)C)cc3)n2-c2ccc(N(C)C)cc2)c(O)cc1O [Compound 7b, 6,6′-(5,6-disulfanediylbis(4-(4-(dimethylamino)phenyl)-4H-1,2,4-triazole-5,3-diyl))bis(4-isopropylbenzene-1,3-diol)]",58
3,"CC(C)c1cc(-c2nn(C(=O)CN)c(=O)n2-c2ccc3c(ccn3C)c2)c(OC(=O)CN)cc1OC(=O)CN [Compound 15b, 4-(1-(2-aminoacetyl)-4-(1-methyl-1H-indol-5-yl)-5-oxo-4,5-dihydro-1H-1,2,4-triazol-3-yl)-6-isopropyl-1,3-phenylene bis(2-aminoacetate) trihydrochloride]",79
4,"CC(C)c1cc(-c2nn(COC(=O)C(N)Cc3ccccc3)c(=O)n2-c2ccc3c(ccn3C)c2)c(O)cc1O (stereo not shown) [Compound 13b, (3-(2,4-dihydroxy-5-isopropylphenyl)-4-(1-methyl-1H-indol-5-yl)-5-oxo-4,5-dihydro-1H-1,2,4-triazol-1-yl)methyl 2-amino-3-phenylpropanoate]",27
5,"COCCC(=O)n1ccc2cc(-n3c(O)nnc3-c3cc(C(C)C)c(O)cc3O)ccc21 [Compound 11b, 3-(2,4-dihydroxy-5-isopropylphenyl)-4-(1-(3-methoxypropanoyl)-1H-indol-5-yl)-1H-1,2,4-triazol-5(4H)-one]",< 100
6,"CC(N)C(=O)Oc1cc(OC(=O)C(C)N)c(C(C)C)cc1-c1nn(C(=O)C(C)N)c(=O)n1-c1ccc2c(ccn2C)c1 (stereo not shown) [Compound 16b, 4-(1-(2-aminopropanoyl)-4-(1-methyl-1H-indol-5-yl)-5-oxo-4,5-dihydro-1H-1,2,4-triazol-3-yl)-6-isopropyl-1,3-phenylene bis(2-aminopropanoate) trihydrochloride]",56

# Same assay, conditions: Table 9; Her2 degradation / inhibition of Hsp90; Method 2: MV-4-11 cells, 72 hours, Cell Counting Kit-8; dihydrochloride; read-out: IC50 Range
row,Structure (SMILES),IC50 [nM]
1,"CC(C)c1cc(-c2nnc(O)n2-c2ccc(N(C)C)nc2)c(O)cc1O [Compound 7d, 4-(4-(6-(dimethylamino)pyridin-3-yl)-5-hydroxy-4H-1,2,4-triazol-3-yl)-6-isopropylbenzene-1,3-diol dihydrochloride]",47

# Same assay, conditions: Table 9; Her2 degradation / inhibition of Hsp90; Method 2: MV-4-11 cells, 72 hours, Cell Counting Kit-8; read-out: IC50 Range
row,Structure (SMILES),IC50 [nM]
1,"CC(C)c1cc(-c2nnc(O)n2-c2cccc(S(=O)(=O)N(C)CCN(C)C)c2)c(O)cc1O [Compound 10d, 3-(3-(2,4-dihydroxy-5-isopropylphenyl)-5-hydroxy-4H-1,2,4-triazol-4-yl)-N-(2-(dimethylamino)ethyl)-N-methylbenzenesulfonamide]",> 330
2,"CC(C)c1cc(-c2nnc(O)n2-c2cccc(S(=O)(=O)N3CCOCC3)c2)c(O)cc1O [Compound 15d, 4-(5-hydroxy-4-(3-(morpholinosulfonyl)phenyl)-4H-1,2,4-triazol-3-yl)-6-isopropylbenzene-1,3-diol]",330
3,"CC(C)c1cc(-c2nnc(O)n2-c2ccc(N(C)C)nc2)c(O)cc1O [Compound 6d, 4-(4-(6-(dimethylamino)pyridin-3-yl)-5-hydroxy-4H-1,2,4-triazol-3-yl)-6-isopropylbenzene-1,3-diol]",58
4,"CC(C)c1cc(-c2nnc(O)n2-c2ccc(N(C)S(C)(=O)=O)cc2)c(O)cc1O [Compound 17d, N-(4-(3-(2,4-dihydroxy-5-isopropylphenyl)-5-hydroxy-4H-1,2,4-triazol-4-yl)phenyl)-N-methylmethanesulfonamide]",85
5,"CC(C)c1cc(-c2nnc(S)n2-c2cccc(S(N)(=O)=O)c2)c(O)cc1O [Compound 14d, 3-(3-(2,4-dihydroxy-5-isopropylphenyl)-5-mercapto-4H-1,2,4-triazol-4-yl)benzenesulfonamide]",336
